Data as given in patent publication US20140322705A1, “Cancer diagnostic and cancer therapeutic” (Thomas Jefferson University, priority 2010, published 2014).
“Also recorded” adds a separate entry of the source.

What was measured:
[1] = system: MDA-MB-231 cells; test: Modified Boyden Chamber (Transwell) cell migration assay; assay type: cell-based, human; settings: 10 mM in lower chamber
Experimental: 3-hydroxy-butyrate or L-lactate can function as chemo-attractants. shown using a modified “Boyden Chamber” assay, employing Transwell cell culture inserts. MDA-MB-231 cells were placed in the upper chambers, and 3-hydroxy-butyrate (10 mM) or L-lactate (10 mM) were introduced into the lower chambers. Note that both 3-hydroxy-butyrate and L-lactate promoted cancer cell migration by nearly 2-fold. *p<0.05, control (vehicle alone) versus 3-hydroxy-butyrate or L-lactate (Student's t-test).
Next, whether 3-hydroxy-butyrate or L-lactate can function as chemo-attractants was assessed, using a modified “Boyden Chamber” assay, employing Transwell cell culture inserts. MDA-MB-231 cells were placed in the upper chambers, and 3-hydroxy-butyrate (10 mM) or L-lactate (10 mM) were introduced into the lower chambers. […] Thus, the metabolic products of aerobic glycolysis can also function as chemo-attractants for cancer cells, probably via a form of nutrient sensing.

[2] = system: MDA-MB-231 cells; test: Lung colonization (metastasis) assay, tail vein injection; assay type: in vivo, athymic nude mice; settings: 7 weeks post-injection; India ink staining
Experimental: To examine the effect of 3-hydroxy-butyrate and L-lactate on cancer cell metastasis, a well-established lung colonization assay was used, where MDA-MB-231 cells are injected into the tail vein of athymic nude mice. After 7 weeks post-injection, the lungs were harvested and the metastases were visualized with India ink staining. Using this approach, the lung parenchyma stains black, while the tumor metastatic foci remain unstained, and appear white. The number of metastases per lung lobe was scored. Note that relative to PBS-alone, the administration of L-lacate stimulated the formation of metastatic foci by ˜10-fold. Under these conditions, 3-hydroxy-butryate had no effect on metastasis formation. *p<0.01, PBS alone versus L-lactate (Student's t-test and ANOVA); *p<0.05, PBS alone versus L-lactate (Mann-Whitney test).
The effect of 3-hydroxy-butyrate and L-lactate on cancer cell metastasis were measured. For this purpose, a well-established lung colonization assay was used, where MDA-MB-231 cells are injected into the tail vein of athymic nude mice. After 7 weeks post-injection, the lungs were harvested and the metastases were visualized with India ink staining. In this method, the lung parenchyma stains black, while the tumor metastatic foci remain unstained, and appear white. For quantitation purposes. the number of metastases per lung lobe was scored.

[3] = system: MDA-MB-231 breast cancer cells; test: MDA-MB-231 flank xenograft tumor growth; assay type: in vivo, athymic nude mice; settings: 500 mg/kg daily i.p.; tumor volume at 3 weeks post tumor cell injection
Experimental: A xenograft model was employed in which MDA-MB-231 breast cancer cells injected into the flanks of athymic nude mice to evaluate the potential tumor promoting properties of the products of aerobic glycolysis (such as 3-hydroxy-butyrate and L-lactate). Tumor growth was assessed by measuring tumor volume, at 3-weeks post tumor cell injection. During this time period, mice were administered either PBS alone, or PBS containing 3-hydroxy-butyrate (500 mg/kg) or L-lactate (500 mg/kg), via daily intra-peritoneal (i.p.) injections. Note that 3-hydroxy-butyrate is sufficient to promote an ˜2.5-fold increase in tumor growth, relative to the PBS-alone control. Under these conditions.
To evaluate the potential tumor promoting properties of the products of aerobic glycolysis (such as 3-hydroxy-butyrate and L-lacate), a xenograft model employing MDA-MB-231 breast cancer cells injected into the flanks of athymic nude mice was used. Tumor growth was assessed by measuring tumor volume, at 3-weeks post tumor cell injection. During this time period, mice were administered either PBS alone, or PBS containing 3-hydroxy-butyrate (500 mg/kg) or L-lactate (500 mg/kg), via daily intra-peritoneal (i.p.) injections.

[4] = system: MDA-MB-231 breast cancer cells; test: Tumor vascularity by CD31 immuno-staining of xenograft tumors; assay type: in vivo, athymic nude mice; settings: 500 mg/kg daily i.p.; primary xenograft tumors
Experimental: Tumor angiogenesis could account for the tumor-promoting properties of 3-hydroxy-butyrate. Thus, the status of tumor vascularity was evaluated using antibodies directed against CD31. However, the vascular density (number of vessels per field) was not increased by the administration of either 3-hydroxy-butyrate or L-lactate. Thus, other mechanisms, such as the “Reverse Warburg Effect” may be operating to increase tumor growth. n.s., not significant.
One mechanism that could account for the tumor-promoting properties of 3-hydroxy-butyrate is increased tumor angiogenesis. Thus, the status of tumor vascularity using antibodies directed against CD31 was evaluated. […] Thus, other mechanisms, such as the “Reverse Warburg Effect” may be operating to increase tumor growth.

[5] = system: MCF7 cancer cells; settings: L-lactate added to culture media; cited from earlier work

Row | SMILES | promotion of cancer cell migration versus vehicle alone [1] [fold] | formation of lung metastatic foci (metastases per lung lobe) relative to PBS-alone [2] | increase in tumor growth (tumor volume) relative to PBS-alone control [3] | vascular density (number of vessels per field), CD31 [4] | appearance of lung metastatic foci versus PBS-alone controls (representative images) [2] | mitochondrial mass [5]
1 | CC(O)CC(=O)O (stereo not shown) [3-hydroxy-butyrate] | ~2 | no effect | ~2.5 fold | not increased; also recorded: without any significant increases | – | –
2 | C[C@H](O)C(=O)O [L-lactate] | ~2 | ~10 fold | no significant effect; also recorded: did not increase | not increased | more numerous, and are also larger in size | dramatically increase
